Laboratory results reported in patent US5494932A, “Sulfonic stilbene derivatives in the treatment of viral disease” (Merrell Dow Pharmaceuticals Inc., priority 1991, dated 1996).
Where two headings read alike, the source gives them in different places.

Tests used:
[1] = system: HIV-1 strain GB8 in JM cells; test: Acute HIV-1 (GB8) infection of JM cells: syncytial counts and p24 antigen; type: cell-based, HIV-1 (human T cell line JM); details: for Mean Syncytial Counts: at day 4 p.i.; for inhibition of p24 viral core antigen / virus-induced multinucleated giant cell formation (syncytia): JM cells acutely infected with GB8; for order of antiviral potency: in all three host cell/virus systems (JM/GB8, C8166/RF, MT-4/RF)
From the text: (§1) When evaluated in the human T cell line JM acutely infected with the GB8 virus, DIDS, H2 DIDS and SITS (Table I) suppressed virus-induced multinucleated giant cell formation (syncytia). […] We also examined the antiviral properties of these compounds in a second host-cell/virus system, i.e., the highly CD4+ C8166 cells infected with the Haitian strain of HIV-1, RF.
(§2) The cell lines used were the semi-mature human lymphoblastoid leukemia T cell line JM, the human T-lymphoblastoid C8166 cell line, the human cutaneous T cell lymphoma line H9 and, the human T cell transformed line MT-4. Stocks of HIV-1 strains RF and GB8 (kindly provided by Dr. Graham Farrar, Center for Applied Microbiological Research, Porton Dawn, England) were prepared from chronically infected H9 cells and acutely infected JM cells, respectively. Virus stocks consisted of cell-free growth medium (RPMI 1640 plus 10% fetal calf serum) containing freshly shed virus. Virus titres were determined by a standard plaque reduction assay.
(§3) Virus stocks (strains RF or GB8) were diluted into growth medium containing various concentrations of DIDS, H2 DIDS or SITS. The required number of cells were then immediately added and the virus allowed to absorb for 2 hours at 37° C. to give a multiplicity of infection (MOI) of 0.001 infectious units/cell. The virus-infected cells were pelleted, washed three times in phosphate buffered saline (PBS), and resuspended in fresh growth medium containing the appropriate concentrations of stilbene disulfonic acids. Cells were then distributed into 24-well culture plates (Falcon) and assayed as described below for virus infection. Alternatively, cells were first infected with HIV-1 (strains RF or GB8) for 2 hours at 37° C. at the above MOI. After extensive washing, cells were replated into fresh growth medium containing various concentrations of stilbene disulfonic acids. In the above experiments, syncytia were scored between 2 and 4 days postinfection (p.i.) in triplicate using an Olympus CK2 inverted microscope. The culture fluids were recovered between 3 and 5 days p.i., clarified by low speed centrifugation (2,000 rpm) for 5 minutes and the level of HIV-1 p24 core antigen in the supernatants was determined by p24 antigen ELISA (Coulter). The concentrations of stilbene disulfonic acids giving 50% inhibition of HIV-1 growth (IC50) were determined from the dose-response curves by linear regression analysis.
Protocol: JM cells were infected with HIV-1 to give a multiplicity of infection of 0.001. Virus adsorption was for 2 hours at room temperature. The cells were washed and distributed into wells containing different concentrations of test compounds and incubated. After 2 days the cells were observed and syncytia were counted. The cell-free supernatant fluids were harvested at 4 and 6 days post infection and assayed for levels of p24 viral core antigen and after 6 days the supernatants were also titrated to determine levels of infectivity.

[2] = system: HIV-1 strain RF in C8166 cells; test: Acute HIV-1 (RF) infection of C8166 cells: syncytial and p24 antigen assays; type: cell-based, HIV-1 (human C8166 cells)
From the text: as §1, §2, §3

[3] = system: HIV-1 strain GB8 in JM cells; test: Established HIV-1 (GB8) infection of JM cells, post-infection addition: syncytia and p24 antigen; type: cell-based, HIV-1 (human T cell line JM); details: 100 μg/ml
[4] = Human immunodeficiency virus 1, 96 h, 12.5 μg/ml, read-out: p24 4 days p.i., % Control
[5] = Human immunodeficiency virus 1, 96 h, 25 μg/ml, read-out: p24 4 days p.i., % Control
[6] = Human immunodeficiency virus 1, 96 h, 50 μg/ml, read-out: p24 4 days p.i., % Control
[7] = Human immunodeficiency virus 1, 96 h, 100 μg/ml, read-out: p24 4 days p.i., % Control
[8] = Human immunodeficiency virus 1, 144 h, read-out: P24 Antigen % Virus Control
[9] = Human immunodeficiency virus 1, 144 h, 12.5 μg/ml, read-out: p24 6 days p.i., % Control
[10] = Human immunodeficiency virus 1, 144 h, 25 µg/mL, GB8 in JM cells, day 6 p.i., read-out: P24 Antigen % Virus Control
[11] = Human immunodeficiency virus 1, 144 h, 25 μg/ml, read-out: p24 6 days p.i., % Control
[12] = Human immunodeficiency virus 1, 144 h, 50 µg/mL, GB8 in JM cells, day 6 p.i., read-out: P24 Antigen % Virus Control
[13] = Human immunodeficiency virus 1, 144 h, 50 μg/ml, read-out: p24 6 days p.i., % Control
[14] = Human immunodeficiency virus 1, 144 h, 100 µg/mL, GB8 in JM cells, day 6 p.i., read-out: P24 Antigen % Virus Control
[15] = Human immunodeficiency virus 1, 144 h, 100 μg/ml, read-out: p24 6 days p.i., % Control
[16] = Human immunodeficiency virus 1, RF strain in C8166 cells, read-out: P24 Antigen % Virus Control (values in parenthesis)
[17] = Human immunodeficiency virus 1, 96 h, read-out: p24 4 days p.i., % Control

O=S(=O)(O)c1cc(N=C=S)ccc1C=Cc1ccc(N=C=S)cc1S(=O)(=O)O [DIDS, 4,4'-diisothiocyanatostilbene-2,2'-disulfonic acid]
Mean Syncytial Counts 2 Days p.i. ([1]; 3 μg/ml): 114 | Mean Syncytial Counts ([1]; 6 μM): 114 | Mean Syncytial Counts 2 Days p.i. ([1]; 6 μg/ml): 101 | Mean Syncytial Counts ([1]; 12 μM): 101 | Mean Syncytial Counts 2 Days p.i. ([1]; 12.5 μg/ml): 31 | p24 4 days p.i. ([1]; 12.5 μg/ml): 110000 pg/mL | p24 6 days p.i. ([1]; 12.5 μg/ml): 2.44 × 10^6 pg/m. | Mean Syncytial Counts ([1]; 25 μM): 31 | Mean Syncytial Counts 2 Days p.i. ([1]; 25 μg/ml): 0 | p24 4 days p.i. ([1]; 25 μg/ml): 4700 pg/mL | p24 6 days p.i. ([1]; 25 μg/ml): 1.21 × 10^6 pg/m. | Mean Syncytial Counts ([1]; 50 μM): 0 | Mean Syncytial Counts 2 Days p.i. ([1]; 50 μg/ml): 0 | p24 4 days p.i. ([1]; 50 μg/ml): 130 pg/mL | p24 6 days p.i. ([1]; 50 μg/ml): 1.23 × 10^4 pg/m. | Mean Syncytial Counts ([1]; 100 μM): 0 | Mean Syncytial Counts 2 Days p.i. ([1]; 100 μg/ml): 0 | p24 4 days p.i. ([1]; 100 μg/ml): None detected | p24 6 days p.i. ([1]; 100 μg/ml): 4.87 × 10^2 pg/m. | Mean Syncytial Counts ([1]; 200 μM): 0 | activity at 12.5 µg/mL [1, 4]: > 100% | activity at 25 µg/mL [1, 5]: 6.4% | activity at 50 µg/mL [1, 6]: 0.18% | activity at 100 µg/mL [1, 7]: 0% | activity at 200 µM [1, 8]: 0.02% | activity at 12.5 µg/mL [1, 9]: > 100% | activity at 25 µg/mL [1, 10]: 100% | activity at 25 µg/mL [1, 11]: 56% | activity at 50 µg/mL [1, 12]: 6.4% | activity at 50 µg/mL [1, 13]: 0.56% | activity at 100 µg/mL [1, 14]: 0.56% | activity at 100 µg/mL [1, 15]: 0.02% | inhibition of p24 viral core antigen [1]: dose-dependent inhibition | virus-induced multinucleated giant cell formation (syncytia) [1]: suppressed | order of antiviral potency [1]: DIDS>H2 DIDS>>SITS | HIV-1 infection ([2]; C8166 cells infected with RF): blocked HIV-1 infection | activity at 25 µg/mL ([2]; Human immunodeficiency virus 1, 25 µg/mL, RF strain in C8166 cells, read-out: P24 Antigen % Virus Control (values in parenthesis)): 100% | activity at 50 µg/mL [2, 16]: 83% | activity at 100 µg/mL [2, 16]: 33% | activity at 200 µg/mL [2, 16]: 4.8% | Mean Syncytia 51 hrs ([3]; time of addition 0h): 0 | Mean Syncytia 51 hrs ([3]; time of addition 24h): 0

O=S(=O)(O)c1cc(N=C=S)ccc1CCc1ccc(N=C=S)cc1S(=O)(=O)O [H2 DIDS, 4,4'-diisothiocyanatodihydrostilbene-2,2'-disulfonic acid]
Mean Syncytial Counts 2 Days p.i. ([1]; 3 μg/ml): 107 | Mean Syncytial Counts ([1]; 6 μM): 107 | Mean Syncytial Counts 2 Days p.i. ([1]; 6 μg/ml): 97 | Mean Syncytial Counts ([1]; 12 μM): 97 | Mean Syncytial Counts 2 Days p.i. ([1]; 12.5 μg/ml): 71 | p24 4 days p.i. ([1]; 12.5 μg/ml): 94000 pg/mL | p24 6 days p.i. ([1]; 12.5 μg/ml): 8.51 × 10^6 pg/m. | Mean Syncytial Counts ([1]; 25 μM): 71 | Mean Syncytial Counts 2 Days p.i. ([1]; 25 μg/ml): 7 | p24 4 days p.i. ([1]; 25 μg/ml): 32000 pg/mL | p24 6 days p.i. ([1]; 25 μg/ml): 2.66 × 10^6 pg/m. | Mean Syncytial Counts ([1]; 50 μM): 7 | Mean Syncytial Counts 2 Days p.i. ([1]; 50 μg/ml): 0 | p24 4 days p.i. ([1]; 50 μg/ml): 70 pg/mL | p24 6 days p.i. ([1]; 50 μg/ml): 3.77 × 10^2 pg/m. | Mean Syncytial Counts ([1]; 100 μM): 0 | Mean Syncytial Counts 2 Days p.i. ([1]; 100 μg/ml): 0 | p24 6 days p.i. ([1]; 100 μg/ml): 6.48 × 10^2 pg/m. | Mean Syncytial Counts ([1]; 200 μM): 0 | activity at 50 µg/mL [1, 17]: 0.01% | activity at 12.5 µg/mL [1, 4]: > 100% | activity at 25 µg/mL [1, 5]: 43% | activity at 100 µg/mL [1, 7]: 0% | activity at 200 µM [1, 8]: 0% | activity at 12 µg/mL ([1]; Human immunodeficiency virus 1, 144 h, 12 µg/mL, GB8 in JM cells, day 6 p.i., read-out: P24 Antigen % Virus Control): 100% | activity at 12.5 µg/mL [1, 9]: > 100% | activity at 25 µg/mL [1, 10]: 100% | activity at 25 µg/mL [1, 11]: > 100% | activity at 50 µg/mL [1, 12]: 43% | activity at 50 µg/mL [1, 13]: 0.02% | activity at 100 µg/mL [1, 14]: 0.01% | activity at 100 µg/mL [1, 15]: 0.03% | activity at 50 µg/mL [2, 16]: > 100% | activity at 100 µg/mL [2, 16]: 59% | activity at 200 µg/mL [2, 16]: 2.5% | Mean Syncytia 51 hrs ([3]; time of addition 0h): 0 | Mean Syncytia 51 hrs ([3]; time of addition 24h): 0

CC(=O)Nc1ccc(C=Cc2ccc(N=C=S)cc2S(=O)(=O)O)c(S(=O)(=O)O)c1 [SITS, 4-acetamido-4'-isothiocyanatostilbene-2,2'-disulfonic acid]
Mean Syncytial Counts 2 Days p.i. ([1]; 3 μg/ml): 93 | Mean Syncytial Counts ([1]; 6 μM): 93 | Mean Syncytial Counts 2 Days p.i. ([1]; 6 μg/ml): 72 | Mean Syncytial Counts ([1]; 12 μM): 72 | Mean Syncytial Counts 2 Days p.i. ([1]; 12.5 μg/ml): 63 | p24 4 days p.i. ([1]; 12.5 μg/ml): 185000 pg/mL | p24 6 days p.i. ([1]; 12.5 μg/ml): 1.51 × 10^6 pg/m. | Mean Syncytial Counts ([1]; 25 μM): 63 | Mean Syncytial Counts 2 Days p.i. ([1]; 25 μg/ml): 63 | p24 4 days p.i. ([1]; 25 μg/ml): 153000 pg/mL | p24 6 days p.i. ([1]; 25 μg/ml): 1.26 × 10^6 pg/m. | Mean Syncytial Counts ([1]; 50 μM): 63 | Mean Syncytial Counts 2 Days p.i. ([1]; 50 μg/ml): 15 | p24 4 days p.i. ([1]; 50 μg/ml): 62500 pg/mL | p24 6 days p.i. ([1]; 50 μg/ml): 2.45 × 10^5 pg/m. | Mean Syncytial Counts ([1]; 100 μM): 15 | Mean Syncytial Counts 2 Days p.i. ([1]; 100 μg/ml): 0 | p24 4 days p.i. ([1]; 100 μg/ml): 1140 pg/mL | p24 6 days p.i. ([1]; 100 μg/ml): 2.2 × 10^4 pg/m. | Mean Syncytial Counts ([1]; 200 μM): 0 | activity at 25 µg/mL [1, 17]: 100% | activity at 12.5 µg/mL [1, 4]: 100% | activity at 50 µg/mL [1, 6]: 85% | activity at 100 µg/mL [1, 7]: 1.6% | activity at 200 µM [1, 8]: 1.6% | activity at 12.5 µg/mL [1, 9]: 69% | activity at 25 µg/mL [1, 11]: 58% | activity at 50 µg/mL [1, 12]: 100% | activity at 50 µg/mL [1, 13]: 11.2% | activity at 100 µg/mL [1, 14]: 85% | activity at 100 µg/mL [1, 15]: 1% | inhibition of p24 viral core antigen [1]: dose-dependent inhibition | virus-induced multinucleated giant cell formation (syncytia) [1]: suppressed | order of antiviral potency [1]: DIDS>H2 DIDS>>SITS | activity in syncytial and p24 antigen assays ([2]; 100 μg/ml, C8166 cells infected with RF): inactive | activity at 50 µg/mL [2, 16]: > 100% | activity at 100 µg/mL [2, 16]: > 100% | activity at 200 µg/mL [2, 16]: > 100% | Mean Syncytia 51 hrs ([3]; time of addition 0h): 4 | Mean Syncytia 51 hrs ([3]; time of addition 24h): 35
